Data as given in ChEMBL document CHEMBL4190312, “Tau protein aggregation in Alzheimer's disease: An attractive target for the development of novel therapeutic agents” (Eur J Med Chem, 2017).

How the values were obtained:
Protein O-GlcNAcase = biological target: T1, Protein O-GlcNAcase (Homo sapiens, UniProt O60502); test: Competitive inhibition of human O-GlcNAcase by Lineweaver-Burk analysis
T1 sequence (O60502 whole entry): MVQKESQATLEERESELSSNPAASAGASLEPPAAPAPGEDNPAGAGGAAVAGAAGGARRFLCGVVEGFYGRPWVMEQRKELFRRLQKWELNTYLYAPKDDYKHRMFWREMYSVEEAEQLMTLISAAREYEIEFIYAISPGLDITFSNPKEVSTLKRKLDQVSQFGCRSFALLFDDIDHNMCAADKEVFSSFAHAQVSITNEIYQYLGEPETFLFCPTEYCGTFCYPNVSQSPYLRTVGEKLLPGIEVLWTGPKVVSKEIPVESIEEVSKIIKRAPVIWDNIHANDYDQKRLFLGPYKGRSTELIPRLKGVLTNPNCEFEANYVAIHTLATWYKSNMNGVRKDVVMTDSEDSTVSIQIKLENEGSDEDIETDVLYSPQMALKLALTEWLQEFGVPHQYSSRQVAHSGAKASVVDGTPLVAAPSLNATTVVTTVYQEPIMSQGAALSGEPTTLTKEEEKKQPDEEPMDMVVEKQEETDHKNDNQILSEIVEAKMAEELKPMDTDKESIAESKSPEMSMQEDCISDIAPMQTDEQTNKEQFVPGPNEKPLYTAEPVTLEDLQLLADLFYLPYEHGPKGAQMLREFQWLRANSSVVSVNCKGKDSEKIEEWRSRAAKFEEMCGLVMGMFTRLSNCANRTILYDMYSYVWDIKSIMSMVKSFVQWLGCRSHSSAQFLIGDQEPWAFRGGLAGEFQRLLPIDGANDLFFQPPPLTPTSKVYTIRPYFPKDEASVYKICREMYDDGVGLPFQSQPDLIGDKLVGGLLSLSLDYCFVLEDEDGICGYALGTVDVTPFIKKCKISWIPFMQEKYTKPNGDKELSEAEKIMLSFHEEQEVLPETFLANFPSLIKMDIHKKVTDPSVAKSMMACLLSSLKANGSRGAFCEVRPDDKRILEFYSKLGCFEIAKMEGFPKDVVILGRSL

Homo sapiens [1] = species on record: Homo sapiens; test: Selectivity index, ratio of Ki for human beta-hexosaminidase A to Ki for human O-GlcNAcase
Homo sapiens [2] = species on record: Homo sapiens; test: Selectivity index, ratio of Ki for human beta-hexosaminidase B to Ki for human O-GlcNAcase

## C=C/C=C/C(=O)N[C@H]1c2nc(CCc3ccccc3)cn2[C@H](CO)[C@@H](O)[C@@H]1O
Protein O-GlcNAcase
  Ki: 4.1 nM
Homo sapiens [1]
  Ratio Ki: 900000
Homo sapiens [2]
  Ratio Ki: 900000
